For orientation: GI50 means the concentration that inhibits growth by half. A low value points to more potent growth inhibition. The term IC50 denotes the point on the concentration scale where inhibition reaches its midpoint.

Test [1] has as its system HT-29 cells (colorectal adenocarcinoma). The test can be described thus: Inhibition of cancer cell proliferation, HT-29 (CellTiterGlo, 72 hours). The test is classed as cell-based. The settings on record: Homo sapiens. How it is done: Measurement of Inhibition of Cancer Cell Proliferation (HT-29/Colorectal Adenocarcinoma)
The following protocol used an HT-29 cell line, which cell line is a model for colorectal adenocarcinoma. HT-29 cells were split and 3000 cells in 100 μl of growth medium were added per well of a flat-bottom 96-well plate. A two-fold test compound solution in serum-free RPM1640 was made, starting at 5,000 nM. Then, 3-fold serial dilutions were made across the plate from well 1 to well 11. Well 12, the last well in a row on the plate, was left as untreated control. 100 μl compound solutions were then transferred to the wells, so the total volume of media was 200 μl per well. Plates were returned to a 37° C. incubator, and the cells were cultured for 72 hours. To measure cell proliferation after 72 hours, media was discarded from the plates, 50 μl/well of fresh medium was added, and 50 μl CellTiterGlo solution was added (Promega Cat#G7573). The plate was covered with a dark lid and incubated for 10 min. A white sealing tape was applied to the bottom of the plate, and the plate was read in a luminescence plate reader. […] A 2-fold serial dilution was used to generate 8 cell densities from 50,000-390 cells per well in 50 μl media. 50 μl CellTiterGlo was added per well, and the plate was read in a luminescence plate reader after 10 min. The reading was plotted vs. cell number to generate a standard curve and the equation of the curve fit. The compound-treated sample luminescence readings were converted to cell numbers using the curve-fit equation. The percent of inhibition, using untreated control as 100% growth, was then calculated. GI50 was then calculated by GraphPad Prism.
In general terms: ATP-based viability assays read luminescence as a measure of living cells.

A further test concerns the target T1, MEK1 activated ERK1 (Homo sapiens, UniProt P27361).
T1 construct: purchased Millipore (Billerica, Mass.) 14-439-K
The test can be described thus: Omnia continuous-read kinase assay for potency against MEK1 activated ERK1. The settings on record: MEK1 activated ERK1, ATP at KM; read-out: ERK1 Omnia WT ATP KM IC50. The class given is biochemical. An outline of the steps: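 Apparent IC50 came from initial reaction slopes (RFU vs time) plotted against log inhibitor with a variable-slope fit. Reactions were started with ERK1 (4 nM final) added to 50 μM ATP, roughly at its appKM, and 10 μM Sox-conjugated ST17 peptide in 20 mM Tris pH 7.5, 5 mM MgCl2. Fluorescence was monitored every 71 seconds.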

Test [2] relates to ERK1/2 phosphorylation of p90RSK in HT29 cells. As to the kind of experiment: pRSK MSD Assay in HT29 cells. The test is classed as cell-based. The settings on record: Homo sapiens, HT-29, read-out: ERK1/ERK2 PRSK MSD HT29 EC50. An outline of the steps: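 Phospho-RSK level, read by electrochemiluminescence on RSK-antibody-coated MSD plates with a phospho-RSK/Sulfo-tag detection pair, reports cellular ERK1/2 activity. HT29 cells, kept overnight in 0.1% FBS medium, were exposed to compound for 120 min at 37° C before lysis.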

T1 sequence (P27361 whole entry): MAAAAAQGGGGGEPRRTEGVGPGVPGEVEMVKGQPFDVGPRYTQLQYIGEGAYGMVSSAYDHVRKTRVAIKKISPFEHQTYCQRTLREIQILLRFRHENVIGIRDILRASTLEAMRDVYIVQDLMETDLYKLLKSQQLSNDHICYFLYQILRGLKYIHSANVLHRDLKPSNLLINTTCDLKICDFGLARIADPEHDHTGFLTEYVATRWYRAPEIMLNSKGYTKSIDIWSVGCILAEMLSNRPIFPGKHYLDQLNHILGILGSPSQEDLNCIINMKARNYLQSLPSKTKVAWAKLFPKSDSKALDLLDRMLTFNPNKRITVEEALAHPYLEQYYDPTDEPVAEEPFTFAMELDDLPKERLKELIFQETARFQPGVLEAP

In test [1], `C=CC(=O)Nc1cc(F)ccc1Nc1nc(N[C@@H]2CCC[C@H](C(N)=O)C2)ncc1C(F)(F)F` (racemic) [Compound I-5, Rac-cis-3-((4-((2-acrylamido-4-fluorophenyl)amino)-5-(trifluoromethyl)pyrimidin-2-yl)amino)cyclohexanecarboxamide] yielded a GI50 of 101 to 500 nM. In addition, the IC50 at MEK1 activated ERK1 is less than 100 nM. Moreover, in test [2], the EC50 was 101 to 500 nM.

Consider `C=CC(=O)Nc1ccccc1Nc1nc(N[C@@H]2CCC[C@H](C(=O)NOCCO)C2)ncc1Cl` (racemic) [Compound I-103, Rac-3-((4-((2-acrylamidophenyl)amino)-5-chloropyrimidin-2-yl)amino)-N-(2-hydroxyethoxy)-cis-cyclohexanecarboxamide], for which the GI50 in test [1] is less than 100 nM. For the same compound, the IC50 at MEK1 activated ERK1 was less than 100 nM. Besides, the EC50 in test [2] was in the range of 101 to 500 nM.

On to `C=CC(=O)N(C)c1ccccc1Nc1nc(N[C@@H]2CCC[C@H](C(N)=O)C2)ncc1Cl` (racemic) [Compound I-105, Rac-cis-3-((5-chloro-4-((2-(N-methylacrylamido)phenyl)amino)pyrimidin-2-yl)amino)cyclohexanecarboxamide], for which, in test [1], the GI50 fell in the range of 501 to 999 nM. The IC50 at MEK1 activated ERK1 lay in the range of 501 to 999 nM. Also, the EC50 in test [2] is greater than 1000 nM.

`C=CC(=O)N[C@@H]1CCCC[C@H]1Nc1nc(Nc2cc(C(N)=O)ccc2C)ncc1C(N)=O` (racemic) [Compound I-255, Rac-trans-4-((2-acrylamidocyclohexyl)amino)-2-((5-carbamoyl-2-methylphenyl)amino)pyrimidine-5-carboxamide] yielded a 50% growth inhibitory concentration (GI50) in test [1] greater than 1000 nM. The IC50 on MEK1 activated ERK1 is greater than 1000 nM.

As for `C=CC(=O)N[C@@H]1CCCC[C@H]1Nc1nc(Nc2cc(C(=O)NOC)ccc2C)ncc1C(N)=O` (racemic) [Compound I-256, Rac-trans-4-((2-acrylamidocyclohexyl)amino)-2-((5-(methoxycarbamoyl)-2-methylphenyl)amino)pyrimidine-5-carboxamide], in test [1], the GI50 is greater than 1000 nM. At MEK1 activated ERK1, the IC50 is greater than 1000 nM.

`C=CC(=O)Nc1ccccc1Nc1nc(N[C@H]2CCCN(C=O)C2)ncc1C(F)(F)F` [Compound I-9, (S)—N-(2-((2-((1-formylpiperidin-3-yl)amino)-5-(trifluoromethyl)pyrimidin-4-yl)amino)phenyl)acrylamide] displayed a 50% growth inhibitory concentration (GI50) in test [1] of 101 to 500 nM. Moreover, in test [2], the EC50 is less than 100 nM.

`C=CC(=O)Nc1ccccc1Nc1nc(NC2CCN(S(C)(=O)=O)CC2)ncc1C(F)(F)F` [Compound I-13, N-(2-((2-((1-(methylsulfonyl)piperidin-4-yl)amino)-5-(trifluoromethyl)pyrimidin-4-yl)amino)phenyl)acrylamide]: the GI50 in test [1] was in the range of 101 to 500 nM. Also, the EC50 in test [2] was 101 to 500 nM.

`C=CC(=O)Nc1ccccc1Nc1nc(Nc2cc(C(=O)NOC)ccc2C)ncc1C(F)(F)F` [Compound I-69, 3-((4-((2-Acrylamidophenyl)amino)-5-(trifluoromethyl)pyrimidin-2-yl)amino)-N-methoxy-4-methylbenzamide] returned a GI50 in test [1] of less than 100 nM. In test [2], the EC50 fell in the range of 101 to 500 nM.

As for `C=CC(=O)Nc1ccccc1Nc1nc(Nc2cc(C(N)=O)ccc2C#N)ncc1C(F)(F)F` [Compound I-71, 3-((4-((2-Acrylamidophenyl)amino)-5-(trifluoromethyl)pyrimidin-2-yl)amino)-4-cyanobenzamide], in test [1], the GI50 was in the range of 101 to 500 nM. Further, in test [2], the EC50 was less than 100 nM.

`C=CC(=O)Nc1ccccc1Nc1nc(Nc2cc(C(=O)NOC)ccc2C#N)ncc1C(F)(F)F` [Compound I-72, 3-((4-((2-Acrylamidophenyl)amino)-5-(trifluoromethyl)pyrimidin-2-yl)amino)-4-cyano-N-methoxybenzamide] came in with a GI50 in test [1] greater than 1000 nM. Also, the IC50 on MEK1 activated ERK1 lay within 101 to 500 nM.

On to `C=CC(=O)Nc1ccccc1Nc1nc(N[C@@H]2CCC[C@H](C(N)=O)C2)ncc1Cl` [Compound I-119, (1S,3R)-3-((4-((2-acrylamidophenyl)amino)-5-chloropyrimidin-2-yl)amino)cyclohexanecarboxamide], for which the GI50 in test [1] was 101 to 500 nM. The EC50 in test [2] lay within 501 to 999 nM.

Take `C=CC(=O)Nc1ccccc1Nc1nc(NC2CCN(C=O)CC2)ncc1Cl` [Compound I-124, N-(2-((5-chloro-2-((1-formylpiperidin-4-yl)amino)pyrimidin-4-yl)amino)phenyl)acrylamide]: the 50% growth inhibitory concentration (GI50) in test [1] lay in the range of 101 to 500 nM. Also, in test [2], the EC50 is less than 100 nM.

In test [1], `C=CC(=O)Nc1ccccc1Nc1nc(N[C@H]2CCCN(S(C)(=O)=O)C2)ncc1Cl` [Compound I-125, (S)—N-(2-((5-chloro-2-((1-(methylsulfonyl)piperidin-3-yl)amino)pyrimidin-4-yl)amino)phenyl)acrylamide] gave a GI50 of 101 to 500 nM. Also, in test [2], the EC50 lay in the range of 101 to 500 nM.

On to `CCOCCC(=O)Nc1ccccc1Nc1nc(Nc2cc(C(N)=O)ccc2C)ncc1Cl` [Compound I-130], for which the GI50 in test [1] is greater than 1000 nM.

`C=CC(=O)N[C@@H]1CCCC[C@H]1Nc1nc(Nc2cc(C(=O)NOC)ccc2C)ncc1Cl` [Compound I-190, 3-((4-(((1R,2R)-2-acrylamidocyclohexyl)amino)-5-chloropyrimidin-2-yl)amino)-N-methoxy-4-methylbenzamide]: the GI50 in test [1] is greater than 1000 nM.

In test [1], `C=CC(=O)Nc1ccccc1Nc1nc(Nc2cc(C(N)=O)ccc2C#N)ncc1Cl` [Compound I-192, 3-((4-((2-acrylamidophenyl)amino)-5-chloropyrimidin-2-yl)amino)-4-cyanobenzamide] had a GI50 of less than 100 nM. Further, in test [2], the EC50 is less than 100 nM.

In test [1], `C=CC(=O)Nc1ccccc1Nc1nc(Nc2cc(C(N)=O)ccc2CC)ncc1Cl` [Compound I-193, 3-((4-((2-acrylamidophenyl)amino)-5-chloropyrimidin-2-yl)amino)-4-ethylbenzamide] gave a concentration for 50% growth inhibition (GI50) of 101 to 500 nM. The EC50 in test [2] lay within 101 to 500 nM.

Compound `C=CC(=O)Nc1cc(F)ccc1Nc1nc(Nc2cc(C(N)=O)ccc2OC)ncc1Cl` [Compound I-208] displayed a GI50 in test [1] of 101 to 500 nM. For the same compound, the EC50 in test [2] is less than 100 nM.

Consider `C=CC(=O)Nc1cc(F)ccc1Nc1nc(Nc2ccc(F)cc2C#N)ncc1Cl` [Compound I-221, N-(2-((5-chloro-2-((2-cyano-4-fluorophenyl)amino)pyrimidin-4-yl)amino)-5-fluorophenyl)acrylamide], for which the GI50 in test [1] was in the range of 501 to 999 nM. For the same compound, the EC50 in test [2] was less than 100 nM.

Turning to `C=CC(=O)Nc1ccccc1Oc1nc(Nc2ccc(N3CCN(C(C)=O)CC3)cc2OC)ncc1C(N)=O` [Compound I-258, 2-((4-(4-acetylpiperazin-1-yl)-2-methoxyphenyl)amino)-4-(2-acrylamidophenoxyl)pyrimidine-5-carboxamide], in test [1], the GI50 is greater than 1000 nM.

As to `C=CC(=O)Nc1ccccc1Oc1nc(Nc2ccc(N3CCC[C@@H]3C(N)=O)cc2OC)ncc1C(N)=O` [Compound I-266, (R)-4-(2-acrylamidophenoxy)-2-((4-(2-carbamoylpyrrolidin-1-yl)-2-methoxyphenyl)amino)pyrimidine-5-carboxamide], the GI50 in test [1] is greater than 1000 nM. At MEK1 activated ERK1, the IC50 fell in the range of 101 to 500 nM.

Compound `C=CC(=O)Nc1ccccc1Nc1nc(Nc2ccc(OCCCNC(=O)CCCC(=O)NCCCOCCOCCOCCCNC(=O)CCCC[C@H]3SC[C@H]4NC(=O)N[C@H]43)cc2OC)ncc1Cl` [Compound I-302, N^1-(3-(4-((4-((2-acrylamidophenyl)amino)-5-chloropyrimidin-2-yl)amino)-3-methoxyphenoxy)propyl)-N^5-(15-oxo-19-((3aR,4R,6aS)-2-oxohexahydro-1H-thieno[3,4-d]imidazol-4-yl)-4,7,10-trioxa-14-azanonadecyl)glutaramide] came in with a GI50 in test [1] greater than 1000 nM. Further, the EC50 in test [2] was greater than 1000 nM.

Consider `C=CC(=O)Nc1ccccc1Nc1nc(Nc2cc(NC(=O)CCCC(=O)NCCCOCCOCCOCCCNC(=O)CCCC[C@@H]3SC[C@@H]4NC(=O)N[C@@H]43)cc(C(N)=O)c2)ncc1Cl` [Compound I-304, N^1-(3-((4-((2-acrylamidophenyl)amino)-5-chloropyrimidin-2-yl)amino)-5-carbamoylphenyl)-N^5-(15-oxo-19-((3aS,4S,6aR)-2-oxohexahydro-1H-thieno[3,4-d]imidazol-4-yl)-4,7,10-trioxa-14-azanonadecyl)glutaramide], for which, at MEK1 activated ERK1, the IC50 lay within 101 to 500 nM. Also, the EC50 in test [2] is greater than 1000 nM.

On to `C=CC(=O)Nc1ccccc1Nc1nc(Nc2cc(C(N)=O)c(OCCCNC(=O)C#CC)cc2C)ncc1Cl` [Compound I-305, 5-((4-((2-acrylamidophenyl)amino)-5-chloropyrimidin-2-yl)amino)-2-(3-(but-2-ynamido)propoxy)-4-methylbenzamide], for which the IC50 on MEK1 activated ERK1 lay within 101 to 500 nM. For the same compound, in test [2], the EC50 was greater than 1000 nM.

For the origin of these results see patent US9561228B2 (Celgene Avilomics Research, Inc., priority 2013, dated 2017).
